From ChEMBL document CHEMBL1201862, “PubChem BioAssay data set” (2004)
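A five-concentration, 48-hour dose response in 96-well plates underlies each endpoint, interpolated linearly between surrounding concentrations. Abbreviation: GI50, concentration required for 50% inhibition of growth.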 Calls of active or inactive are those of the source. Cut-off read from the data, not from the text of the source: active = GI50 up to about 1.1 µM and inactive = higher.

Experiments:
Experiment in all cases: DTP human tumour cell line panel, 48 h
[1] = test system: M19-MEL
[2] = test system: KM12
[3] = test system: OVCAR-5
[4] = test system: HOP-62
[5] = test system: CAKI-1
[6] = test system: NCI-H460
[7] = test system: RXF 393
[8] = test system: SW-620
[9] = test system: M14
[10] = test system: SF-295
[11] = test system: HL-60
[12] = test system: SF-268
[13] = test system: COLO 205
[14] = test system: NCI-H522
[15] = test system: LOX IMVI
[16] = test system: BT-549
[17] = test system: MDA-MB-231
[18] = test system: Hs-578T
[19] = test system: DU-145
[20] = test system: NCI/ADR-RES

Compound	GI50 [1]	GI50 [2]	GI50 [3]	GI50 [4]	GI50 [5]	GI50 [6]	GI50 [7]	GI50 [8]	GI50 [9]	GI50 [10]	GI50 [11]	GI50 [12]	GI50 [13]	GI50 [14]	GI50 [15]	GI50 [16]	GI50 [17]	GI50 [18]	GI50 [19]	GI50 [20]
O=C1CC(c2c(-c3ccccc3)[nH]c3ccccc23)C(=O)N1 (configuration not stated)	> 100 µM (inactive)	> 100 µM (inactive)	> 100 µM (inactive)	> 100 µM (inactive)	71.9 µM (inactive)	> 100 µM (inactive)	> 100 µM (inactive)	> 100 µM (inactive)	> 100 µM (inactive)	> 100 µM (inactive)	> 100 µM (inactive)	–	–	–	–	–	–	–	–	–
Cc1ccc(C2(O)CC(c3ccc([N+](=O)[O-])o3)=NN2C(=O)COc2ccccc2Cl)cc1 (configuration not stated)	3.69 µM (inactive)	8.83 µM (inactive)	32.7 µM (inactive)	29.2 µM (inactive)	19.4 µM (inactive)	5.73 µM (inactive)	–	6.7 µM (inactive)	8.45 µM (inactive)	15.3 µM (inactive)	2.84 µM (inactive)	10.5 µM (inactive)	3.78 µM (inactive)	13.1 µM (inactive)	5.45 µM (inactive)	–	–	–	–	–
O=C1c2cccc(O)c2C(=O)c2cccc(O)c21 [ANTHRARUFIN]	> 100 µM (inactive)	> 100 µM (inactive)	> 100 µM (inactive)	> 100 µM (inactive)	> 100 µM (inactive)	> 100 µM (inactive)	> 100 µM (inactive)	> 100 µM (inactive)	> 100 µM (inactive)	> 100 µM (inactive)	–	> 100 µM (inactive)	> 100 µM (inactive)	> 100 µM (inactive)	> 100 µM (inactive)	–	–	–	–	–
CC1NS(=O)(=O)N(C)C1=O (configuration not stated)	> 100 µM (inactive)	> 100 µM (inactive)	> 100 µM (inactive)	> 100 µM (inactive)	> 100 µM (inactive)	–	> 100 µM (inactive)	> 100 µM (inactive)	> 100 µM (inactive)	> 100 µM (inactive)	> 100 µM (inactive)	> 100 µM (inactive)	–	> 100 µM (inactive)	> 100 µM (inactive)	–	–	–	–	–
Nc1nc(O)c2c(ncn2CCO)n1	> 100 µM (inactive)	–	> 100 µM (inactive)	> 100 µM (inactive)	–	> 100 µM (inactive)	> 100 µM (inactive)	> 100 µM (inactive)	–	> 100 µM (inactive)	> 100 µM (inactive)	> 100 µM (inactive)	> 100 µM (inactive)	–	> 100 µM (inactive)	–	–	–	–	–
Cc1ccc(O)c(C(=O)CCCC(=O)c2cc(C)ccc2O)c1	> 100 µM (inactive)	> 100 µM (inactive)	> 100 µM (inactive)	> 100 µM (inactive)	> 100 µM (inactive)	> 100 µM (inactive)	–	30.2 µM (inactive)	> 100 µM (inactive)	> 100 µM (inactive)	27.4 µM (inactive)	> 100 µM (inactive)	> 100 µM (inactive)	63.8 µM (inactive)	57.1 µM (inactive)	–	–	–	–	–
CCOC(=O)CN.CCOC(=O)Nc1ccc(S(=O)(=O)OC)cc1.CCOC(=O)Nc1ccc(S(=O)(=O)OC)cc1	> 50 µM (inactive)	> 50 µM (inactive)	> 50 µM (inactive)	> 50 µM (inactive)	> 50 µM (inactive)	17.8 µM (inactive)	–	7.83 µM (inactive)	> 50 µM (inactive)	> 50 µM (inactive)	> 50 µM (inactive)	> 50 µM (inactive)	> 50 µM (inactive)	–	> 50 µM (inactive)	–	–	–	–	–
N#Cc1c2nc3ccccc3nc2n2ccccc12	> 100 µM (inactive)	> 100 µM (inactive)	> 100 µM (inactive)	> 100 µM (inactive)	> 100 µM (inactive)	> 100 µM (inactive)	–	> 100 µM (inactive)	> 100 µM (inactive)	–	> 100 µM (inactive)	> 100 µM (inactive)	> 100 µM (inactive)	> 100 µM (inactive)	> 100 µM (inactive)	–	–	–	–	–
CC(=O)Nc1ccc(S(=O)(=O)c2nnc(NC(C)=O)s2)cc1	–	> 100 µM (inactive)	> 100 µM (inactive)	> 100 µM (inactive)	> 100 µM (inactive)	> 100 µM (inactive)	> 100 µM (inactive)	> 100 µM (inactive)	> 100 µM (inactive)	25.5 µM (inactive)	> 100 µM (inactive)	> 100 µM (inactive)	0.215 µM (active)	> 100 µM (inactive)	> 100 µM (inactive)	> 100 µM (inactive)	> 100 µM (inactive)	> 100 µM (inactive)	> 100 µM (inactive)	> 100 µM (inactive)
Cc1ccc(S(=O)(=O)C2=C([Si](C)(C)C)C3CC2[C@@H]2C4C=CC(CC4)[C@H]32)cc1 (some centres not stated)	–	> 100 µM (inactive)	> 100 µM (inactive)	40.8 µM (inactive)	82.6 µM (inactive)	86.1 µM (inactive)	33.5 µM (inactive)	> 100 µM (inactive)	> 100 µM (inactive)	28.4 µM (inactive)	> 100 µM (inactive)	38.1 µM (inactive)	> 100 µM (inactive)	51.9 µM (inactive)	> 100 µM (inactive)	> 100 µM (inactive)	26.5 µM (inactive)	39.1 µM (inactive)	> 100 µM (inactive)	> 100 µM (inactive)
CC1=C(C(=O)c2ccccc2)C23C(=O)N(c4ccccc4)C(=O)C2=C(O)C=CC3(O)N1 (configuration not stated)	–	23.9 µM (inactive)	47.2 µM (inactive)	32.5 µM (inactive)	28.9 µM (inactive)	40.8 µM (inactive)	20.2 µM (inactive)	25.9 µM (inactive)	40.2 µM (inactive)	43.4 µM (inactive)	16.6 µM (inactive)	38.6 µM (inactive)	50.8 µM (inactive)	12.7 µM (inactive)	19.8 µM (inactive)	20.4 µM (inactive)	28 µM (inactive)	> 100 µM (inactive)	44.1 µM (inactive)	51.4 µM (inactive)
COc1ccc2nc3c(C(=O)NCCN(C)C)cccc3nc2c1	5.05 µM (inactive)	5.98 µM (inactive)	11.2 µM (inactive)	7.23 µM (inactive)	3.75 µM (inactive)	–	–	3.1 µM (inactive)	5.56 µM (inactive)	6.41 µM (inactive)	4.23 µM (inactive)	7.36 µM (inactive)	4.28 µM (inactive)	–	3.34 µM (inactive)	–	–	–	–	–
N#Cc1c(-c2ccc([N+](=O)[O-])cc2)c2c([nH]c1=O)-c1ccccc1CCC2	–	40.7 µM (inactive)	> 100 µM (inactive)	40.5 µM (inactive)	> 100 µM (inactive)	51.1 µM (inactive)	30.9 µM (inactive)	63.5 µM (inactive)	> 100 µM (inactive)	37.2 µM (inactive)	43 µM (inactive)	68.7 µM (inactive)	83.9 µM (inactive)	41.5 µM (inactive)	56.6 µM (inactive)	24.9 µM (inactive)	> 100 µM (inactive)	75 µM (inactive)	28.1 µM (inactive)	50.5 µM (inactive)
Cc1ccc(OCC2OC(n3cnc4nc(Cl)nc(Cl)c43)CC2Oc2ccc(C)cc2)cc1 (configuration not stated)	–	8.73 µM (inactive)	17.2 µM (inactive)	16.3 µM (inactive)	4.75 µM (inactive)	6.55 µM (inactive)	3.85 µM (inactive)	3.76 µM (inactive)	6.35 µM (inactive)	16.4 µM (inactive)	0.402 µM (active)	7.01 µM (inactive)	9.25 µM (inactive)	1.84 µM (inactive)	2 µM (inactive)	9.51 µM (inactive)	2.51 µM (inactive)	11.9 µM (inactive)	12.9 µM (inactive)	15.3 µM (inactive)
CCN(CC)Cc1nc2sc3c(c2c(=O)n1-c1ccccc1)CCCC3	–	46.3 µM (inactive)	19.7 µM (inactive)	27.4 µM (inactive)	19.7 µM (inactive)	19.6 µM (inactive)	18.5 µM (inactive)	16.7 µM (inactive)	15.9 µM (inactive)	23.7 µM (inactive)	23.3 µM (inactive)	21.1 µM (inactive)	17.7 µM (inactive)	21.8 µM (inactive)	13.8 µM (inactive)	28.3 µM (inactive)	15.3 µM (inactive)	34.5 µM (inactive)	23 µM (inactive)	24.8 µM (inactive)
CCC1(O)CC(OC2CC(N(C)C)C(OC3CC(O)C(OC4CCC(=O)C(C)O4)C(C)O3)C(C)O2)c2c(cc3c(c2O)C(=O)c2c(O)ccc(O)c2C3=O)C1C(=O)OC (configuration not stated)	–	< 0.01 µM (active)	0.0123 µM (active)	< 0.01 µM (active)	< 0.01 µM (active)	< 0.01 µM (active)	< 0.01 µM (active)	< 0.01 µM (active)	< 0.01 µM (active)	< 0.01 µM (active)	< 0.01 µM (active)	< 0.01 µM (active)	< 0.01 µM (active)	< 0.01 µM (active)	< 0.01 µM (active)	< 0.0152 µM (active)	< 0.0132 µM (active)	< 0.0407 µM (active)	< 0.01 µM (active)	< 0.01 µM (active)
Cc1ncc(CO)c(/C=N/CCCCCC/N=C/c2c(CO)cnc(C)c2[O-])c1[O-].[Mg+2]	–	> 100 µM (inactive)	> 100 µM (inactive)	> 100 µM (inactive)	> 100 µM (inactive)	> 100 µM (inactive)	> 100 µM (inactive)	> 100 µM (inactive)	> 100 µM (inactive)	> 100 µM (inactive)	> 100 µM (inactive)	> 100 µM (inactive)	> 100 µM (inactive)	> 100 µM (inactive)	> 100 µM (inactive)	> 100 µM (inactive)	> 100 µM (inactive)	> 100 µM (inactive)	> 100 µM (inactive)	> 100 µM (inactive)
